# ± gives the standard deviation of the reports.
row,Compound,glass transition temperature [°C]
1,*C(=O)c1ccc2c(c1)C(=O)N(c1cccc(C#Cc3cccc(N4C(=O)c5ccc(*)cc5C4=O)c3)c1)C2=O (repeat unit),294.00
2,*/C=C/C1CC(*)C2CC=CC12 (repeat unit),53.00
3,*CC(*)c1ccccc1COCCC (repeat unit),97.00
4,*C(=O)Nc1ccc(C2(c3ccc(N4C(=O)c5ccc(*)cc5C4=O)cc3)CCC(C(C)(C)C)CC2)cc1 (repeat unit),331.00
5,*CC(*)(C)C(=O)OCCCCCCOc1ccc(C(=O)Oc2ccc(OCCCC)cc2)cc1 (repeat unit),49.00
6,*CC(*)(C)CC (repeat unit) [Poly(2-methylbutene)],-11.58 ± 9.3
7,*Oc1ccc(C(C)(C)c2ccc(OC(*)=O)c(Cl)c2)cc1Cl (repeat unit),147.00
8,*Oc1ccc(OC(=O)c2ccc(C(*)=O)cc2Oc2ccc(Br)cc2)cc1 (repeat unit),108.00
9,*CCC(C)CC(=O)O* (repeat unit),-71.50
10,*Oc1ccc(S(=O)(=O)c2ccc(OC(=O)c3cccc(C(*)=O)c3)cc2)cc1 (repeat unit),249.00
11,*CC(*)OCC(C)(C)CC (repeat unit),9.00
12,*CC(*)(C)C(=O)OC1CCCCC1C (repeat unit),85.00
13,*c1cccc(N2C(=O)c3ccc(Oc4ccc(Oc5ccc(Oc6ccc7c(c6)C(=O)N(*)C7=O)cc5)cc4)cc3C2=O)c1 (repeat unit),227.00
14,*Oc1cccc(NC(=O)c2cc(NC(=O)c3ccc(OC(C)=O)cc3)cc(C(=O)Nc3ccc(*)cc3)c2)c1 (repeat unit),251.00
15,*c1ccc2c(c1)C(=O)N(c1ccc(Oc3c(C(C)(C)C)cc(-c4ccc(N5C(=O)c6ccc(C(*)(C(F)(F)F)C(F)(F)F)cc6C5=O)cc4)cc3C(C)(C)C)cc1)C2=O (repeat unit),355.00
16,*CC(*)(C)C(=O)OCCCCCCCCCCn1c2ccccc2c2cc(/N=N/c3ccc([N+](=O)[O-])cc3)ccc21 (repeat unit),36.00
17,*CC(C)(C)C1C(=O)N(C)C(=O)C1* (repeat unit),156.50
18,*Oc1ccc(/N=C/c2ccc(N(c3ccccc3)c3ccc(/C=N/c4ccc(*)cc4)cc3)cc2)cc1 (repeat unit),162.00
19,*Oc1cccc(NC(=O)CCCCCCC(=O)Nc2ccc(*)cc2)c1 (repeat unit),140.00
20,*C(=O)Nc1ccc(C2(c3ccc(N4C(=O)c5ccc(*)cc5C4=O)cc3)CCC(C)CC2)cc1 (repeat unit),322.00
21,*CC(*)(C#N)C(=O)OCCCCCC (repeat unit) [Poly(hexyl cyanoacrylate)],85.92 ± 0.1
22,*c1ccc(C(=O)Nc2ccc(Oc3ccc(NC(=O)c4ccc(Oc5ccc(-c6nn(*)c(=O)c7ccccc67)cc5)cc4)cc3)cc2)cc1 (repeat unit),280.00
23,*C(=S)Nc1ccc(Oc2ccc(NC(=S)n3c(=O)c4cc5c(=O)n(*)c(=O)c5cc4c3=O)cc2)cc1 (repeat unit),265.00
24,*CCSSCCOCO* (repeat unit),-57.50
25,*O[Si](C)(C)O[Si](C)(C)O[Si](C)(C)OC(C)CCC(*)C (repeat unit),-90.00
26,*Oc1cccc2ccc(Oc3ccc(NC(=O)c4ccc(Oc5ccc(S(=O)(=O)c6ccc(Oc7ccc(C(=O)Nc8ccc(*)cc8)cc7)cc6)cc5)cc4)cc3)cc12 (repeat unit),218.00
27,*CCCCCCCCOc1c(OC)cc(/C=C/c2cc(C(C)C)c(/C=C/c3cc(OC)c(O*)c(OC)c3)cc2C(C)C)cc1OC (repeat unit),85.00
28,*CCc1ccc(CCNC(=O)CCCCCCCCC(=O)N*)cc1 (repeat unit),105.00

# From the PolyMetriX glass transition set
